Source: patent US20230218555A1, “CREATINE, ITS DERIVATIVES, COMPOSITIONS AND METHODS OF USE THEREOF” (priority 2021, published 2023)

Legend:
Format in all cases: in vivo, human
[1] = test system: Rheumatoid Arthritis (RA); test: Example 26: rheumatoid arthritis, intralesional injection and topical; details: 0.15 ml of 2% aqueous solution/suspension once weekly, 4 injections; over 9 weeks
Procedure: A subject, described in an earlier Example, after approximately 4 months of worsening symptoms, and finger joint enlargements on both hands, realized that they were rapidly developing RA, especially when a rheumatoid nodule enlarged over the terminal joint of the left […] finger to a size of approximately 1 cm in diameter, and about 3 mm thick. The nodule was initially injected with 0.15 ml of a 2% aqueous solution/suspension of creatine monohydrate once weekly for 4 injections. […] Thereafter the subject wore a nitrile glove containing a few drops of C15 3-9% dissolved in WP 82 for an hour twice daily on the left hand only. After another 2 months C15 9% in WP 82 was topically applied by means of their wearing nitrile gloves containing the C15 solution for 1 hour twice daily. […] It is intended for the subject to continue topical treatment in one form or another for an indefinite time forward.

[2] = test system: psoriatic arthritis, painful, swollen and erythematous right ankle; test: Example 15: subcutaneous injection over ankle with psoriatic arthritis; details: 0.5 ml of 2% subcutaneous
Procedure: A diabetic subject with psoriasis for over 4 decades, and worsening psoriatic arthritis for about 10 years, presented with an acutely painful, swollen and erythematous right ankle. Using a 1 ml insulin syringe with short needle they injected 0.5 ml of the 2% creatine monohydrate as described above into a subcutaneous site of the anterior ankle.

[3] = test system: rheumatoid arthritis; rheumatoid nodule; test: Example 13: rheumatoid arthritis fingers, nodule injection and glove application; details: nodule injected with 0.15 ml of 2% aqueous solution/suspension once weekly, four injections; over 9 weeks
Procedure: A subject noted changes in their fingers that appeared to be compatible with the diagnosis of early rheumatoid arthritis in autumn of the year. At about one month later there appeared over the terminal interphalangeal joint of the left third finger a raised inflammatory nodule compatible with the diagnosis of a rheumatoid nodule. The nodule was injected with 0.15 ml of a 2% aqueous solution/suspension of creatine monohydrate once weekly for four injections. […] Thereafter, for a period of one month, the subject wore a nitrile glove containing a few drops N-acetyl ethyl creatine 3% dissolved in water: propylene glycol 8:2 for about an hour twice daily on the left hand only.

[4] = test system: arthritic pain in the right hip joint; test: Example 16: subcutaneous injection for hip pain
Procedure: A subject who for several weeks was experiencing disabling arthritic pain in the right hip joint, was given two subcutaneous injections of a sterile 2% aqueous solution/suspension of creatine monohydrate over the point of pain, 0.5 ml given first, and 0.6 ml given five days later. […] A third subcutaneous injection of 0.7 ml of the 2% creatine monohydrate solution/suspension was given over the point of joint pain elicited by finger pressure. […] Hip remained pain free for another 2 weeks.

dental pain = test: Example 17: post dental surgery pain; details: about 1 gram powder in mouth
Procedure: A subject had three teeth, #23, 24 and 25 extracted at 12 noon, then had two implants posted immediately after. At about 6 pm, subject started to feel pain in the gum area after lidocaine anesthesia wore off. […] The subject took about 1 gram creatine monohydrate powder into mouth. The powder, as it dissolved in saliva, was rinsed for approximately 5 minutes, then swallowed. The dental pain stopped in about 20 minutes, and relief lasted for 8 hours.

[5] = test system: arthritis of cervical and thoracic spine; test: Example 14: subcutaneous injection over sites of spinal pain
Procedure: A physician subject with continually worsening osteoarthritis of multiple joints for 15-16 years, prepared a sterile aqueous injectable solution/suspension of 2% creatine monohydrate. Under their direction, medical assistants were instructed on techniques to give subcutaneous injections of the 2% aqueous solution/suspension with either a 1 ml syringe with 27 gauge 13 mm needle or with a 1 ml insulin syringe with 30 gauge 8 mm needle.
Five intervertebral painful sites of arthritis of cervical and thoracic spine, identified by finger pressure, received a single injection of 0.3 ml of the solution.

psoriatic arthritis = test: Example 35: psoriatic arthritis, topical C20 and C26
Procedure: A subject with a 40 year history of psoriasis and several years of psoriatic arthritis topically applied the formulations cited in Example 34 above. Formulation of C20 was applied to both hands. […] The formulation of C26 was applied to the left ankle and foot, pain of which was relieved in about 5 minutes and lasted for 4-5 hours.

[6] = test system: post trauma pain in the pinned ankle; test: Example 34: ankle pain after surgical insertion of metal screws; details: for extent of pain relief: 6% in WEP 244, topical
Procedure: A subject with above described post trauma pain at the end of each day experienced painful discomfort in the pinned ankle. […] Complete relief lasted nearly 24 hours. At the end of the next day, the ankle was as painful as the days before. Subject applied 6% C20 in same liquid vehicle.

[7] = test system: painful swollen right knee; test: Example 9: painful swelling of knee joint, three topical formulations; details: before the test
Procedure: A subject with relentless painful swollen right knee for 3-4 years, not relieved by oral ibuprofen, was tested and rated analgesic efficacy of the three following formulations applied topically to the knee. [table] [table] [table]

pain in the left ankle = test: Example 8: post fracture acute ankle pain; details: before the test
Description: A subject with a history of fractured left ankle seven years earlier, who had worn a plaster cast for several weeks at that time, related that for the past three months disturbing and increasing pain in the left ankle, which was occurring daily and was disturbing their sleep every night. […] They were provided 8 ounces of the above Formulation A (Example 4), to be applied to the painful ankle as needed.

`CN(CC(=O)O)C(=N)N.O` [creatine monohydrate] was tested. Which “resolution of rheumatoid nodule” value [1] did it give?
Its value is “the nodule resolved almost completely”.

What about the “edema and erythema of the ankle” value [2] of the same compound?
The value was “completely resolved within a week”.

What about the “state of ankle four weeks after the injection” value [2] of the same compound?
The value was “remained pain free, was of normal appearance, and was completely functional as a normal ankle”.

What about the “time to resolution of ankle pain” value [2] of the same compound?
The value was “about 30 minutes”.

And the “extent of pain relief” value ([2]; anterior ankle, person)?
Its value is “Ankle pain completely resolved”.

What about the “resolution of rheumatoid nodule” value [3] of the same compound?
The value was “the nodule resolved almost completely”.

And the “duration of complete relief of pain” value ([4]; after the first two injections)?
Its value is 2 weeks.

What about the duration pain free ([4]; after third injection) of the same compound?
Its duration pain free is 2 weeks.

What about the “time to complete relief of pain” value ([4]; third injection, 0.7 ml) of the same compound?
The value was 3 to 4 h.

What about the “extent of pain relief” value ([4]; third subcutaneous injection, 0.7 ml of 2%) of the same compound?
Its value is “Complete relieve of pain”.

What about the “extent of pain relief” value ([4]; two subcutaneous injections of 2% solution/suspension, 0.5 ml and 0.6 ml five days later, person) of the same compound?
Its value is “Complete relief of pain”.

And the duration of relief (dental pain)?
The duration of relief was 8 h.

And the “time until dental pain stopped” value (dental pain; rinsed approximately 5 minutes, swallowed, person)?
The value was “about 20 minutes”.

And the “extent of pain relief” value ([5]; single subcutaneous injection of 0.3 ml of 2% aqueous solution/suspension at five intervertebral sites)?
Its value is “All sites/areas became pain free”.

What about the “time to pain free after injection” value ([5]; subcutaneous 0.3 ml of 2% per site) of the same compound?
Its value is 2 to 3 h.

And the duration pain free ([5]; subcutaneous 0.3 ml of 2% per site, no further therapy)?
Its duration pain free is 7 weeks.

For `CCOC(=O)CN(C)C(N)=NC(=O)c1ccccc1OC(C)=O` [Compound C26, N-2-acetoxybenzoyl ethyl creatinate], which “extent of pain relief” value (psoriatic arthritis; 6% in WEP 244 applied to left ankle and foot) is on record?
The value was “relieved”.

What about the duration of relief (psoriatic arthritis; left ankle and foot) of the same compound?
The duration of relief was 4 to 5 h.

And the “time to pain relief” value (psoriatic arthritis; left ankle and foot)?
The value was “about 5 minutes”.

What about the “duration of complete relief” value ([6]; 6% in WEP 244) of the same compound?
The value was roughly 24 h.

And the “time to pain relief” value ([6]; 6% in WEP 244)?
Its value is no more than 1 min.

What about the “extent of pain relief” value [6] of the same compound?
The value was “completely relieved the pain”.

`CCOC(=O)CN(C)C(N)=NC(=O)c1ccccc1` [Compound C20, N-benzoyl ethyl creatinate] was tested. Which “extent of pain relief” value (psoriatic arthritis; 6% in WEP 244 applied to both hands) did it give?
Its value is “completely relieved”.

What about the duration of relief (psoriatic arthritis; both hands) of the same compound?
The duration of relief was 4 h.

And the “time to pain relief” value (psoriatic arthritis; both hands)?
Its value is “about 2 minutes”.

And the “extent of pain relief” value [6]?
The value was “Some relief did occur but not complete as with C26”.

`CC(C)Cc1ccc(C(C)C(=O)O)cc1` (stereo not shown) [ibuprofen] was tested. Which “pain relief by oral comparator” value [7] did it give?
The value was “not relieved”.

What about the “pain relief by oral comparator” value (pain in the left ankle) of the same compound?
Its value is “did relieve the pain for several hours, but the pain always recurred”.
